What was measured:
[1] = biological target: T1, Constitutive androstane receptor (CAR) (Homo sapiens, UniProt Q14994); test: In vitro CAR activation screening assay (UGT1A1 promoter gtPBREM-pGL4 luciferase reporter in Hep3B-gtPBREM cells); assay type: cell-based
T1 construct: The pGL4-gtPBREM plasmid was transfected into Hep3B cells; endogenous in cells
T1 sequence (Q14994 1-352): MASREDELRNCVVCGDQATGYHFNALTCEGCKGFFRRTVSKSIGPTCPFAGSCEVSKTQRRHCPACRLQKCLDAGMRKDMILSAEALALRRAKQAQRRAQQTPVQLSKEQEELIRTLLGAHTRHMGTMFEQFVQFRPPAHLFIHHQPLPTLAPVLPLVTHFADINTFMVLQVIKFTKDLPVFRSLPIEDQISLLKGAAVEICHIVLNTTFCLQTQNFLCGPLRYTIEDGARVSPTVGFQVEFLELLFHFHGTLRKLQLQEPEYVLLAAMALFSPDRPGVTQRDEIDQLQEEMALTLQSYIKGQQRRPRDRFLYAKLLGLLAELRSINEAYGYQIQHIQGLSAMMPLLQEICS
From the text: Until now, there is no commercially available high throughput screening method for CAR activation. Traditionally, CAR activation can be detected in western blots by its downstream signals such as UGT1A1, MRP2 or CYP2B6. […] However, this method was slow and pricy. In order to rapidly screen all the compounds for CAR activation at less cost, an in vitro CAR activation screening assay was developed: DNA was extracted from Hep3B cells and UGT1A1 promoter was obtained using PCR amplification. Ligation between UGT1A1 promoter and pGL4 vector was performed and the plasmid was amplified via E. coli replication. The desired plasmid was extracted from E. coli and transfected into Hep3B. The desired colony bearing UGT1A1 promoter-pGL4 plasmid was selected by neomycin. CAR activation was measured by adding tested compounds to Hep3B for several hours and luminescence was measured. Higher activation will get higher luminescence readout. This assay system was validated with two different CAR agonists: CITCO (direct agonist) and scoparone (an indirect agonist). […] Different concentration of scoparone at 1, 5, 10 and 20 μM had been tested either for luciferase assay or downstream UGT1A1 and MRP2 expression (data not shown) and 10 μM was selected to be the best condition for the following work.
After successfully establishing the in vitro assay, all of the coumarin compounds were subjected to the screening (at 10 μM) and their SAR was discussed. Although the reporter system can successfully identify CAR-activating compounds under 8 h and display better efficiency and sensitivity compared with western blots, it only presented a medium luciferase response. According to previous studies, CITCO was reported to only moderately enhance human CAR (less than 2-fold), compared with the enhance provided by TCPOBOP for murine CAR (5- to 10-fold) in luciferase reporter assays. […] Another possibility for the medium response in our reporter system might be the contribution of the whole gtPBREM element which might include response-suppressive elements that was used and the single nucleotide variation of DR3 element which was reported to slightly reduce the original UGT1A1 activity.
The genomic DNA was isolated from Hep3B cells using Wizard® Genomic DNA Purification Kit (Promega, Fitchburg, WI, USA). The promoter region of UGT1A1 gene, gtPBREM element, was amplified by AccuPrime^TM Taq DNA Polymerase High Fidelity Kit (Invitrogen, MA, USA). The sequence of the amplified element was confirmed by DNA sequencing company and cloned into pGL4 luciferase reporter vector. The pGL4-gtPBREM plasmid was transfected into Hep3B cells. The stable pGL4-gtPBREM transfected Hep3B cells, Hep3B-gtPBREM cells, were established after G418 selection. The luciferase activity represented of CAR activation ability was measured using individual established clone. Further, CAR-shRNA was obtained from the Genomic Research Center and transfected into Hep3B-gtPBREM cells. The transient transfected shCAR-Hep3B-gtPBREM cells were used for further luciferase assays.
The Hep3B-gtPBREM cells and shCAR-Hep3B-gtPBREM cells (1.5 × 10^5 cells/well) were seeded into 12-well plates for overnight then pre-determined concentration compounds were added for desired time. After treatment, transfected cells were washed twice in PBS, lysated with 1× passive lysis buffer and luciferase intensity of equal amount of cell lysate was measured by a Synergy HT Multi-Mode Microplate Reader (BioTek, Winooski, VT, USA).

[2] = system: UGT1A1; test: mRNA expression of UGT1A1 in Hep3B (RT-PCR); assay type: cell-based, human; conditions: 10 μM, 2, 4, 6, 8 and 10 h
Description: Figure 6 The time course study of mRNA expression of MRP2 and UGT1A1 after 10 μM 6,7-diprenoxycoumarin treatment. Hep3B cells were treated with 10 μM 50 for 2, 4, 6, 8 and 10 h. The total mRNA was obtained and the expression of downstream genes were analyzed with PCR. The ratio of MRP2 to GAPDH was calculated using Image J and normalization.
Total RNA was isolated from control and treated cells using a TRIzol reagent (Invitrogen) according to the manufacturer’s instruction. The RNA concentration was measured by a spectrophotometer and equal amounts of total RNA (2 μg) were reverse—transcribed using a RevertAid First Strand cDNA Synthesis Kit (K1622, Fermentas, Hanover, MD, USA). Amplification of cDNA was performed in the PCR reaction buffer (0.2 mM dNTP, 1.5 mM MgCl2, and 0.5 μM of each primer) containing 2.5 units of Taq DNA polymerase. The PCR products were resolved by agarose electrophoresis, visualized by ethidium bromide straining and quantified by Image J®. The PCR cycling procedures and sequences of primers are listed below. PCR conditions: (1) UGT1A1: 94 °C, 30 s; 62 °C, 45 s; 72 °C, 30 s; 27 cycles; (2) MRP2: 94 °C, 30 s; 62 °C, 45 s; 72 °C, 30 s; 27 cycles; (3) CAR: 94 °C, 30 s; 59 °C, 45 s; 72 °C, 30 s; 35 cycles; (4) GADPH: 94 °C, 30 s; 62 °C, 45 s; 72 °C, 30 s; 27 cycles; (4) gtPBREM: 94 °C, 30 s; 63 °C, 30 s; 68 °C, 60 s; 30 cycles.

increased CAR activation fold ([1]; 10 μM, compared to scoparone) | activation at 10 µM ([1]; Table 2, 10 μM, (luminescence of compound − luminescence of scoparone)/luminescence of scoparone × 100%, read-out: CAR Activation Fold) | luciferase activity ([1]; assay validation, positive control, indirect agonist) | SMILES | mRNA expression level of UGT1A1 [2]
50% | 50% |  | CC(C)=CCOc1cc2ccc(=O)oc2cc1OCC=C(C)C [Compound 50, 6,7-diprenoxycoumarin] | enhanced
 |  | enhance luciferase activity | COc1cc2ccc(=O)oc2cc1OC [Compound 39, scoparone] | 

— paper PMC7796031, “Studies of Coumarin Derivatives for Constitutive Androstane Receptor (CAR) Activation” (Molecules, 2020)
